Results reported in patent US20110039721A1, “METHOD FOR PREDICTION ABOUT CARCINOGENICITY OF SUBSTANCE IN RODENT” (Chemicals Evaluation and Research Institute, priority 2007, published 2011).

Columns and labels:
[1] = tested on: mRNA expressed from the genes (A) to (D) in rat liver; test: Behavior of genes (mRNA expression level, oligo-DNA microarray) in rat liver after 28-day oral administration; format: in vivo
Summary of the method: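 Liver mRNA measured by oligo-DNA microarray after 28 days of once-daily oral gavage in 5-week-old male F344 rats (n=4 per group), with vehicle controls given equal solvent volume. Significance threshold: 1.5-fold up or down versus control, with changes opposite in direction to other carcinogens counted as not significant.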

[2] = tested on: rodent; details: in vivo; cited from earlier work
[3] = tested on: liver; details: in vivo; cited from earlier work
[4] = gene group (A), Unigene No. Rn.167075
[5] = gene group (C), Unigene No. Rn.120914

ClC1=C(Cl)[C@]2(Cl)[C@@H]3[C@@H]4C[C@@H]([C@H]5O[C@@H]45)[C@@H]3[C@@]1(Cl)C2(Cl)Cl [TS017, Dieldrin]
Behavior of gene caused by administration of chemical substance, Gene No. 4846 ([1]; gene group (A), Unigene No. Rn.144554): −
Behavior of gene caused by administration of chemical substance, Gene No. 2026 [1, 4]: −
Behavior of gene caused by administration of chemical substance, Gene No. 4218 [1, 4]: −
Behavior of gene caused by administration of chemical substance, Gene No. 6182 ([1]; gene group (A), Unigene No. Rn.5834): +
Behavior of gene caused by administration of chemical substance, Gene No. 5600 ([1]; gene group (A), Unigene No. Rn.9836): −
Behavior of gene caused by administration of chemical substance, Gene No. 1494 ([1]; gene group (B), Unigene No. Rn.1430): +
Behavior of gene caused by administration of chemical substance, Gene No. 2045 ([1]; gene group (B), Unigene No. Rn.19329): +
Behavior of gene caused by administration of chemical substance, Gene No. 2203 ([1]; gene group (B), Unigene No. Rn.21240): +
Behavior of gene caused by administration of chemical substance, Gene No. 533 ([1]; gene group (C), Unigene No. Rn.106184): +
Behavior of gene caused by administration of chemical substance, Gene No. 725 ([1]; gene group (C), Unigene No. Rn.108075): −
Behavior of gene caused by administration of chemical substance, Gene No. 1163 ([1]; gene group (C), Unigene No. Rn.11766): −
Behavior of gene caused by administration of chemical substance, Gene No. 4973 ([1]; gene group (C), Unigene No. Rn.118529): −
Behavior of gene caused by administration of chemical substance, Gene No. 4095 ([1]; gene group (C), Unigene No. Rn.119024): −
Behavior of gene caused by administration of chemical substance, Gene No. 1334 [1, 5]: −
Behavior of gene caused by administration of chemical substance, Gene No. 6620 [1, 5]: −
Behavior of gene caused by administration of chemical substance, Gene No. 6303 ([1]; gene group (C), Unigene No. Rn.123063): −
Behavior of gene caused by administration of chemical substance, Gene No. 5878 ([1]; gene group (C), Unigene No. Rn.143213): −
Behavior of gene caused by administration of chemical substance, Gene No. 1131 ([1]; gene group (C), Unigene No. Rn.144946): −
Behavior of gene caused by administration of chemical substance, Gene No. 1562 ([1]; gene group (C), Unigene No. Rn.14744): −
Behavior of gene caused by administration of chemical substance, Gene No. 1741 ([1]; gene group (C), Unigene No. Rn.1647): −
Behavior of gene caused by administration of chemical substance, Gene No. 893 ([1]; gene group (C), Unigene No. Rn.164817): −
Behavior of gene caused by administration of chemical substance, Gene No. 6026 ([1]; gene group (C), Unigene No. Rn.167685): −
Behavior of gene caused by administration of chemical substance, Gene No. 154 ([1]; gene group (C), Unigene No. Rn.185941): −
Behavior of gene caused by administration of chemical substance, Gene No. 1993 ([1]; gene group (C), Unigene No. Rn.18728): −
Behavior of gene caused by administration of chemical substance, Gene No. 813 ([1]; gene group (C), Unigene No. Rn.201760): −
Behavior of gene caused by administration of chemical substance, Gene No. 2494 ([1]; gene group (C), Unigene No. Rn.23969): −
Behavior of gene caused by administration of chemical substance, Gene No. 2546 ([1]; gene group (C), Unigene No. Rn.24561): −
Behavior of gene caused by administration of chemical substance, Gene No. 3776 ([1]; gene group (C), Unigene No. Rn.43232): −
Behavior of gene caused by administration of chemical substance, Gene No. 3929 ([1]; gene group (C), Unigene No. Rn.4620): −
Behavior of gene caused by administration of chemical substance, Gene No. 1119 ([1]; gene group (C), Unigene No. Rn.9757): −
Behavior of gene caused by administration of chemical substance, Gene No. 6742 ([1]; gene group (C), Unigene No. Rn.9779): −
Behavior of gene caused by administration of chemical substance, Gene No. 5634 ([1]; gene group (C), Unigene No. Rn.9862): −
Behavior of gene caused by administration of chemical substance, Gene No. 5726 ([1]; gene group (D), Unigene No. Rn.9939): −
Carcinogenicity [2]: C+
Liver carcinogenicity [3]: Cr−
